These results are taken from ChEMBL document CHEMBL1201862, “PubChem BioAssay data set” (2004).

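Where inhibition never reached the appropriate level, the endpoint shown equals the highest concentration tested. Otherwise, values were interpolated linearly from a five-concentration, 48-hour dose response in 96-well plates. At the GI50, growth is halved.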 The source made the active and inactive calls. No stated cut-off is given here; in the data, active = GI50 up to about 1.1 µM and inactive = higher.

Assay in all cases: NCI anticancer screen, dose series, 48 h
The subject of assay [1] is SK-OV-3.
For assay [2], the system named is NCI-H522.
Assay [3] concerns NCI-H23.
Assay [4] has as its system LOX IMVI.
Assay [5] deals with MCF7.
Assay [6] concerns RXF 393.
Assay [7] concerns SNB-19.
For assay [8], the system named is RPMI-8226.
The subject of assay [9] is Hs-578T.
Assay [10] relates to OVCAR-3.
For assay [11], the system named is HOP-62.
For assay [12], the system named is SK-MEL-2.
Assay [13] concerns HCT-15.
The test system of assay [14] is SK-MEL-5.
Assay [15] concerns EKVX.

Regarding `CCc1nc2cc3cccnc3c(Cl)c2[nH]c1=O`, the GI50 is 95.9 µM (inactive) in assay [1]; > 100 µM (inactive) in assay [2]; > 100 µM (inactive) in assay [3]; > 100 µM (inactive) in assay [4]; 5.86 µM (inactive) in assay [5]; 31.8 µM (inactive) in assay [6]. The GI50 is 58.3 µM (inactive) in assay [7]; > 100 µM (inactive) in assay [8]; > 100 µM (inactive) in assay [9]; > 100 µM (inactive) in assay [10]; > 100 µM (inactive) in assay [11]; > 100 µM (inactive) in assay [12]. Besides, the GI50 in assay [13] was > 100 µM; in assay [14], > 100 µM (inactive); in assay [15], > 100 µM (inactive).

`O=C1c2ccccc2CC12Cc1cc3c(cc1C2)CCC3`: the GI50 is > 100 µM (inactive) in [1]; 30.5 µM (inactive) in assay [2]; > 100 µM (inactive) in assay [3]; 57.1 µM (inactive) in [4]; 34.5 µM (inactive) in assay [5]; 40.6 µM (inactive) in assay [6]. In addition, the GI50 in assay [7] was > 100 µM (inactive); in assay [8] it was 32 µM (inactive); in assay [9], > 100 µM (inactive); in assay [10], 31.6 µM (inactive); in [11] it was > 100 µM (inactive); in assay [12], 31.2 µM (inactive). Besides, the GI50 was 43.2 µM in assay [13], 20.5 µM (inactive) in assay [14] and 99.3 µM (inactive) in [15].

Consider `Oc1cc(Cl)cc2cccnc12`, for which the GI50 was 43.7 µM (inactive) in assay [1]; 0.348 µM (active) in assay [2]; 1.29 µM (inactive) in assay [3]; 0.625 µM (active) in assay [4]; 1.04 µM (active) in [5]; 3.02 µM (inactive) in [6]. Besides, the GI50 was 5.94 µM (inactive) in [7]; 0.601 µM (active) in assay [8]; 4.05 µM (inactive) in [9]; 0.306 µM (active) in [10]; > 35 µM (inactive) in assay [11]; 5.92 µM (inactive) in assay [12]. The GI50 was 0.552 µM in assay [13], 0.902 µM (active) in assay [14] and 0.804 µM (active) in assay [15].

For `COc1c(C(=O)/C(=N/Nc2cccc(Cl)c2)C(C)=O)c(O)c(OC)c2occc12`, the GI50 in [1] is > 100 µM (inactive); in assay [2], > 100 µM (inactive); in assay [3], > 100 µM (inactive); in assay [4], 56.4 µM (inactive); in [5], > 100 µM (inactive); in [6] it was 34.6 µM (inactive). The GI50 in assay [7] is > 100 µM (inactive); in assay [8] it was 80.9 µM (inactive); in [9], 70 µM (inactive); in assay [10], > 100 µM (inactive); in assay [11] it was > 100 µM (inactive); in [12], > 100 µM (inactive). Also, the GI50 is > 100 µM in [13], > 100 µM (inactive) in [14] and 78.7 µM (inactive) in assay [15].

For the compound `CC(=O)O[C@H]1CC[C@H]2[C@@H]3CCC4=C/C(=N/OCCN(C)C)CC[C@]4(C)[C@H]3CC[C@]12C`, the GI50 is 12.2 µM (inactive) in assay [1]; 6.87 µM (inactive) in [2]; 12.9 µM (inactive) in [3]; 3.16 µM (inactive) in assay [4]; 5.64 µM (inactive) in [5]; 12 µM (inactive) in assay [6]. Moreover, the GI50 was 7.59 µM (inactive) in [7]; 1.2 µM (inactive) in assay [8]; 13.5 µM (inactive) in assay [9]; 12.8 µM (inactive) in assay [10]; 13.4 µM (inactive) in [11]; 11 µM (inactive) in assay [12]. Besides, the GI50 in assay [13] was 2.22 µM; in [14] it was 4.58 µM (inactive); in [15], 14.4 µM (inactive).

Turning to `Cn1c(CO)ccc1-c1ccc(-c2ccc(CO)[se]2)[se]1`, the GI50 was > 50.4 µM (inactive) in assay [1]; 18.8 µM (inactive) in assay [2]; 16.3 µM (inactive) in assay [3]; 16.2 µM (inactive) in [4]; 0.251 µM (active) in [5]; > 26.2 µM (inactive) in assay [6]. For the same compound, the GI50 in [7] is > 63.4 µM (inactive); in [8], 2.39 µM (inactive); in assay [9], > 100 µM (inactive); in assay [10], 2.01 µM (inactive); in assay [11], 7.28 µM (inactive); in assay [12] it was 7.59 µM (inactive). Besides, the GI50 in [13] was 9.82 µM; in assay [14] it was 2.28 µM (inactive); in assay [15] it was 48.1 µM (inactive).

With `CC(=O)c1ccc(NCN2C(=O)c3ccccc3C2=O)cc1`, the GI50 in [1] is > 100 µM (inactive); in assay [2], 97.5 µM (inactive); in assay [3], > 100 µM (inactive); in assay [4], > 100 µM (inactive); in assay [5], > 100 µM (inactive); in assay [6], > 100 µM (inactive). Also, the GI50 in [7] is > 100 µM (inactive); in assay [8], 66.5 µM (inactive); in assay [9], > 100 µM (inactive); in [10], > 100 µM (inactive); in assay [11], > 100 µM (inactive); in assay [12], > 100 µM (inactive). For the same compound, the GI50 in [13] was > 100 µM; in assay [14], > 100 µM (inactive); in [15] it was > 100 µM (inactive).

Consider `CC(=O)/C=C/C1=C(C)CCCC1(C)CC(C)C` (stereo not given), for which the GI50 in [1] was 55.5 µM (inactive); in assay [2], 18.4 µM (inactive); in assay [3], 24.8 µM (inactive); in assay [4] it was 18.6 µM (inactive); in assay [5], 25.2 µM (inactive); in [6], 14.8 µM (inactive). In addition, the GI50 was 27.4 µM (inactive) in assay [7]; 13.7 µM (inactive) in assay [8]; 32.7 µM (inactive) in assay [9]; 26.5 µM (inactive) in [10]; 57.9 µM (inactive) in assay [11]; 19.6 µM (inactive) in [12]. Further, the GI50 is 15.1 µM in assay [13], 16.9 µM (inactive) in [14] and 39.7 µM (inactive) in assay [15].

Regarding `COc1ccc2ccccc2c1/C=C/C(=O)c1ccccc1`, the GI50 in assay [1] is 3.62 µM (inactive); in assay [2], 2.46 µM (inactive); in assay [3] it was 2.6 µM (inactive); in assay [4], 2.77 µM (inactive); in assay [5] it was 3.25 µM (inactive); in assay [6] it was 1.33 µM (inactive). For the same compound, the GI50 in assay [7] was 3.24 µM (inactive); in assay [8] it was 1.44 µM (inactive); in [9], 2.92 µM (inactive); in assay [10], 2.32 µM (inactive); in assay [11], 2.68 µM (inactive); in assay [12], 1.56 µM (inactive). Further, the GI50 in assay [13] is 2.9 µM; in [14] it was 4.19 µM (inactive); in assay [15], 3.61 µM (inactive).

As for `COc1cc2ccccc2c2cc([N+](=O)[O-])oc12`, the GI50 in [1] was 0.49 µM (active); in [2] it was 0.183 µM (active); in assay [3], 1.2 µM (inactive); in [4], 0.314 µM (active); in [5] it was 0.35 µM (active); in assay [6], 0.207 µM (active). Further, the GI50 is 0.811 µM (active) in assay [7]; 0.619 µM (active) in assay [8]; 2.28 µM (inactive) in assay [9]; 1.43 µM (inactive) in assay [10]; 3.37 µM (inactive) in [11]; 0.197 µM (active) in assay [12]. Besides, the GI50 is 1.03 µM in assay [13], 0.0948 µM (active) in assay [14] and 4.19 µM (inactive) in assay [15].
